According to patent US9242977B2, “Trk-inhibiting compound” (ONO PHARMACEUTICAL CO., LTD., priority 2012, dated 2016):

Legend:
TrkA = TrkA (Homo sapiens (Human), UniProt P04629); test: Measurement of TrkA enzyme-inhibiting activity (LanthaScreen TR-FRET kinase assay); type: biochemical; conditions: final ATP 150 μM, read-out: TrkA inhibitory activity (IC50; μM)
Method: TrkA-inhibiting activity was measured according to the following method using LanthaScreen™ kinase assay reagents (Invitrogen; Fluorescein-Poly GT, LanthaScreen™ Tb-PY20 and TR-FRET Dilution Buffer), TrkA (Invitrogen), ATP (Sigma-Aldrich), a kinase reaction buffer (50 mM HEPES buffer (Sigma-Aldrich) (pH 7.5) containing 0.01% Brij35 (Sigma-Aldrich), 10 mM MgCl2 (Sigma-Aldrich) and 1 mM EGTA (Sigma-Aldrich)) and 0.5 M EDTA (pH 8.0) (Invitrogen).
The present compound was dissolved in dimethylsulfoxide (hereinafter abbreviated as DMSO) to prepare a 10 mM solution. The test compound at 10 mM was distributed into a 96-well plate and serially diluted with DMSO with the geometrical ratio of 3. The serial dilutions (DMSO solutions) were diluted with the kinase reaction buffer to 20-fold to prepare solutions of the present compound with 5-times concentrations (DMSO concentration: 5%). TrkA was diluted with the kinase reaction buffer to prepare a solution at 38.5 ng/mL (enzyme solution). Adenosine triphosphate (hereinafter abbreviated as ATP) was preliminarily diluted in distilled water to prepare a 10 mM solution which was then divided into containers and stored at −20° C. The 10 mM ATP solution and Fluorescein-Poly GT were diluted in the kinase reaction buffer to prepare a solution containing […] of ATP and 500 nM of Fluorescein-Poly GT (ATP-substrate solution). EDTA (0.5 M; pH 8.0) and LanthaScreen™ Tb-PY20 were diluted in the TR-FRET Dilution Buffer to prepare a solution containing 20 mM of EDTA and 4 nM of LanthaScreen™ Tb-PY20 (detection buffer).
The solutions of the present compound (5 μL/well) and the enzyme solution (10 μL/well) were added to a 96-half well assay plate and the plate was shaken at room temperature for 10 minutes on a plate shaker (IKA™ MTS2/4 digital microplate, IKA Japan K.K.). As a control and a blank, the kinase reaction buffer containing 5% DMSO (5 μL/well) was added in place of the solution of the present compound. As a blank, the kinase reaction buffer (10 μL/well) was added in the place of the enzyme solution. The ATP-substrate solution (10 μL/well) was then added to the plate to initiate kinase reaction and the plate was shaken in the dark at room temperature for 1 hour on the plate shaker (final concentration of TrkA: 15.4 ng/mL, final concentration of the substrate: 200 nM and final concentration of ATP: 150 μM). Kinase reaction was terminated by adding the detection buffer (25 μL/well) to the plate and the plate was shaken in the dark at room temperature for 30 minutes on the plate shaker. On an Analyst GT (Molecular Devices Japan, K.K.) the wells were irradiated with excitation light at 340 nm and the fluorescence intensities at 520 nm and 495 nm were measured. The fluorescence intensity at 520 nm for each well was divided by the fluorescence intensity at 495 nm to calculate the time resolved fluorescence resonance energy transfer (TR-FRET) ratio.
The inhibition rate (%) of the present compound was calculated according to the following Equation 1: Inhibition rate (%)={1−(AX−AB)/(AC−AB)×100 Equation 1
wherein AX: the TR-FRET ratio when the present compound is added;
AB: the TR-FRET of the blank; and
AC: the TR-FRET of the control.
The value for 50% inhibition by the present compound (IC50 value) was calculated from the inhibition curve based on the inhibition rate of the present compound at respective concentrations.

[1] = system: NGF-induced vascular hyper permeability; test: Suppression of rat NGF-induced vascular hyper permeability (in vivo test, Evans Blue); conditions: oral, 12 hours after administration, read-out: Rates of Suppression for Vascular Hyper Permeability (%)
Method: TrkA-inhibiting activity of the present compound was evaluated in vivo. The present compound dissolved in a medium was orally administered (adminstered volume: 5 mL/kg) to male CD(SD)IGS rats (7- to 9-week old, Charles River laboratories Japan, Inc.) shaved on the back. A medium was orally administered (adminstered volume: 5 mL/kg) to the control and normal groups. After 6 or 12 hours of administration, 3 μg/mL of a NGF (Mouse 2.5s, Natural, Invitrogen) solution prepared in 0.1% BSA (Sigma-Aldrich)-containing saline was intracutaneously administered (dose; 50 μL/site) at 3 sites on the back of animals under halothane anesthesia. For the normal group, 0.1% BSA-containing saline was intracutaneously administered (dose; 50 μL/site) at 3 sites on the back. Immediately after intracutaneous administration, 1% Evans Blue (Tokyo Chemical Industry Co., Ltd.) was administered intravenously from tail (adminstered volume: 3 mL/kg). After 10 minutes of administration, the animals were sacrificed by bleeding due to incision of the abdominal aorta. The sites of intracutaneous administration on the back (3 sites) were excised and the skin samples were respectively transferred to the wells in a 48-well plate (Asahi Glass Co., Ltd.). Formamide (0.8 mL/well) was added to the plate and the plate was sealed and incubated overnight at 60° C. The formamide extraction solution (200 μL) was transferred to a 96-well plate and the absorbance (wavelength: 620 nm) of Evans Blue extracted in formamide was measured on an absorbance microplate reader (SpectraMAX 190, Molecular Devices Japan, K.K.). Standard samples of Evans Blue dissolved in formamide (0, 0.78, 1.56, 3.13, 6.25, 12.5, 25 and 50 μg/mL) were measured at the same time for the absorbance (wavelength: 620 nm) to generate a calibration curve. Based on the calibration curve and the absorbances of samples, the concentrations of Evans Blue in the sample was calculated. The concentrations of Evans Blue for three skin samples collected from one aminal were averaged to obtain the vale for the animal. The rate of suppression for rat NGF-induced vascular hyper permeability of the present compound was calculated according to the following Equation 4: Suppression rate (%)=(1−(AX−AN)/(AC−AN)}×100 Equation 4
wherein AX: the concentration of Evans Blue of the test compound (an average value of 3 samples from one animal);
AN: the concentration of Evans Blue of the normal group (an average value of 3 samples from one animal);
AC: the concentration of Evans Blue of the control group (an average value of 3 samples from one animal).

TrkA, sequence (P04629 33-796): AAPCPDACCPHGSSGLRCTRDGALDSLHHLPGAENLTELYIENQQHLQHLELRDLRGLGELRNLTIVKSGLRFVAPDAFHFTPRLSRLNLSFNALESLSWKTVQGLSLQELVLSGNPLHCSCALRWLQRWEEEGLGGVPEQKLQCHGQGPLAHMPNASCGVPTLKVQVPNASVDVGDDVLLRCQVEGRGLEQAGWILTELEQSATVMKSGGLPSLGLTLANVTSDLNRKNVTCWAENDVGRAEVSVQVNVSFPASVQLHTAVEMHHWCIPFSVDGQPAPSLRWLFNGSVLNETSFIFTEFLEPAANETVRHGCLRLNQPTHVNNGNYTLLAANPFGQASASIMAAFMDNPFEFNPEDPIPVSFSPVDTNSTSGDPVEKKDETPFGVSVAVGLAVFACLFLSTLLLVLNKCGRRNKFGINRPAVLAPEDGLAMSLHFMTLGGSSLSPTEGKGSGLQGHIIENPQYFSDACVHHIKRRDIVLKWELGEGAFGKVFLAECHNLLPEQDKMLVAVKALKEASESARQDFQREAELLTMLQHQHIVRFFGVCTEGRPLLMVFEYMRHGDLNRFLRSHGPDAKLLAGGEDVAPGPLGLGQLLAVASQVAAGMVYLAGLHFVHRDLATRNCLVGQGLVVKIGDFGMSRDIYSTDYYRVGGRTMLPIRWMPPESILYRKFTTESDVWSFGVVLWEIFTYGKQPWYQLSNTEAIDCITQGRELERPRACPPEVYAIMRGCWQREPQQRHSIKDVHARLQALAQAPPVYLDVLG

With `CCNc1ncc(-c2ccc(Oc3ncc(NC(=O)Nc4cc(C(F)(F)F)cnc4Oc4ccccc4)cn3)cc2)s1` [Example 48, 1-(2-{4-[2-(ethylamino)-1,3-thiazol-5-yl]phenoxy}-5-pyrimidinyl)-3-[2-phenoxy-5-(trifluoromethyl)-3-pyridinyl]urea] the IC50 (TrkA) was 0.12 µM and the inhibition in vivo at 1 mg/kg [1] was 71%.
`CCNc1ncc(-c2ccc(Oc3ncc(NC(=O)Nc4cc(C(F)(F)F)cnc4-c4ccc(C)cc4)cn3)cc2)s1` [Example 23, 1-(2-{4-[2-(ethylamino)-1,3-thiazol-5-yl]phenoxy}-5-pyrimidinyl)-3-[2-(4-methylphenyl)-5-(trifluoromethyl)-3-pyridinyl]urea] was tested, and the IC50 (TrkA) was 0.09 µM and the inhibition in vivo at 1 mg/kg [1] was 78%.
`O=C(Nc1cnc(Oc2ccc(-c3cnc(N4CCCC4=O)s3)cc2)nc1)Nc1cc(C(F)(F)F)cnc1-c1ccccc1` [Example 54, 1-(2-{4-[2-(2-oxo-1-pyrrolidinyl)-1,3-thiazol-5-yl]phenoxy}-5-pyrimidinyl)-3-[2-phenyl-5-(trifluoromethyl)-3-pyridinyl]urea] was tested, and the IC50 (TrkA) was 0.04 µM and the inhibition in vivo at 1 mg/kg [1] was 88%.
`Cc1cccc(-c2ncc(C(F)(F)F)cc2NC(=O)Nc2cnc(Oc3ccc(-c4cnc(N5CCCC5=O)s4)cc3)nc2)c1` [Example 57, 1-[2-(3-methylphenyl)-5-(trifluoromethyl)-3-pyridinyl]-3-(2-{4-[2-(2-oxo-1-pyrrolidinyl)-1,3-thiazol-5-yl]phenoxy}-5-pyrimidinyl)urea] showed an IC50 (TrkA) of 0.03 µM and an inhibition in vivo at 1 mg/kg [1] of 78%.
`CCCNc1ncc(-c2ccc(Oc3ncc(NC(=O)Nc4cc(C(F)(F)F)ccc4Cl)cn3)cc2)s1` [Example 85-117, 1-[2-chloro-5-(trifluoromethyl)phenyl]-3-(2-{4-[2-(propylamino)-1,3-thiazol-5-yl]phenoxy}-5-pyrimidinyl)urea] gave an IC50 (TrkA) of 0.02 µM and an inhibition in vivo at 1 mg/kg [1] of 74%.
`CCNc1ncc(-c2ccc(Oc3ccc(NC(=O)Nc4cc(C(F)(F)F)cnc4-c4ccc(C)c(C)c4)cn3)cc2)s1` [Example 34, 1-[2-(3,4-dimethylphenyl)-5-(trifluoromethyl)-3-pyridinyl]-3-(6-{4-[2-(ethylamino)-1,3-thiazol-5-yl]phenoxy}-3-pyridinyl)urea] gave an IC50 (TrkA) of 0.18 µM and an inhibition in vivo at 1 mg/kg [1] of 75%.
